From US20220218725A1, “METHODS AND MATERIALS FOR TREATING CANCER” (Mayo Foundation for Medical Education and Research, priority 2019, published 2022)

Columns and labels:
[1] = tested on: CMML patient-derived bone marrow sample; experiment: Hematopoietic progenitor colony forming assay; format: cell-based, human; conditions: assessed by counting colony forming units in methyl cellulose media, KPT-330 0.05-0.5 μM, CS 1-3 mM
Excerpt: CMML patient-derived bone marrow samples were first treated with ammonium chloride to deplete red blood cells, washed in RPMI, then plated at a final concentration of 5×10^4-2×10^5 cells/mL in addition to drug(s). This solution was immediately inoculated into methylcellulose (StemCell) formulated with recombinant cytokines to support the optimal growth of erythroid progenitor cells, granulocyte-macrophage progenitor cells, and multipotent granulocyte, erythroid, macrophage and megakaryocyte progenitor cells. Plates were incubated with respective treatment conditions at 37° C. and colonies were enumerated on day 10-14.

[2] = tested on: BCWM cells; experiment: Cell viability, Annexin V/PI assay; format: cell-based; conditions: BCWM (WM); 48 hours; KPT-330 0.1-1.0 μM, CS 1-3 mM, single agent or combination
Procedure: (§1) All cell lines were obtained from commercial vendors (ATCC or DSMZ), which includes mantle cell lymphoma (MCL) cell lines: Jeko-1, Mino, JVM-2; T-cell lymphoma (TCL) cell lines: SU-DHL-1, Karpas-299, SR-786 and HUT-78; and diffuse large B-cell lymphoma cell lines: OCI-Ly1, SU-DHL-2, OCI-Ly3, SU-DHL-6; Waldenstrom macroglobulinemia (WM) cell lines: BCWM, MWCL, RPCI; sarcoma cell lines: FUJI, SW872, and pancreatic cancer cell lines: PANC-1.
(§2) WM, TCL, and MCL cell lines were cultured in RPMI media supplemented with 10% fetal bovine serum while DLBCL cell lines were cultured in IMDM media with 10% human serum (Sigma). Pancreatic cancer and sarcoma cell lines were cultured in DMEM with 10% fetal bovine serum. All cell lines were assessed for their viability before use in experiments. Only cells with the viability of 85% or greater were used.

[3] = tested on: RPCI cells; experiment: Cell viability, Annexin V/PI assay; format: cell-based; conditions: RPCI (WM); 48 hours; KPT-330 0.1-1.0 μM, CS 1-3 mM, single agent or combination
Procedure: as §1, §2

[4] = tested on: Panc-1 cells; experiment: Cell viability, Annexin V/PI assay; format: cell-based; conditions: Panc-1 (Pancreatic cancer); 48 hours; KPT-330 0.1-1.0 μM, CS 1-3 mM, single agent or combination
Procedure: as §1, §2

[5] = tested on: MWCL cells; experiment: Cell viability, Annexin V/PI assay; format: cell-based; conditions: MWCL (WM); 48 hours; KPT-330 0.1-1.0 μM, CS 1-3 mM, single agent or combination
Procedure: as §1, §2

[6] = tested on: OCI-Ly1 cells; experiment: Cell viability, Annexin V/PI assay (also IC50 and combination index)
Procedure: To assess apoptosis and cellular proliferation, all cell lines were treated with CRM 1 inhibitors (concentration ranging from 0.05-2 μM) and salicylates at concentrations ranging from (0.001-10 mM) for 48 hours before analysis was performed. DMSO was used to substitute the drug in controls.
After 48 hours incubation, cells were washed with Annexin buffer solution and stained with both propidium iodide (PI) and FITC-Annexin V (Life Technologies), and assayed on a BD Accuri flow cytometer (BD Biosciences). Apoptosis results were analyzed with BD CellQuest software. […]
Jeko-1 and OCI-Ly1 cell lines were used to assess the IC50. […] Relative IC50 was calculated as described elsewhere (see, e.g., Sebaugh et al., Pharmaceutical statistics 10:128-134 (2011)). The combination index was calculated as described elsewhere (see, e.g., Chou et al., Cancer Res 70:440-446 (2010)).

[7] = tested on: BT-20 cells; experiment: Cell viability, Annexin V/PI assay; format: cell-based; conditions: BT-20 (Breast cancer); 48 hours; KPT-330 0.1-1.0 μM, CS 1-3 mM, single agent or combination
Procedure: KPT-330 purchased from Selleckchem (cat no: S7252) was dissolved in DMSO while CS (Santa Cruz, Calif.S 2016-36-6), sodium salicylate (Sigma-Aldrich, cat no: S3007), acetyl salicylate (Sigma-Aldrich, cat no: CAS 50-78-2) was diluted in PBS. […] The concentration range of KPT-330 was 0.05-1.0 μM while CS was 1-3 mM were used for ex vivo treatment and incubation time ranged from 24 hours to 72 hours.
The viability assessment for cell lines and primary patients samples were conducted with the Annexin V/PI method.

[8] = tested on: JeKo-1 cells; experiment: Mitotic index calculation; format: cell-based; conditions: 48 hours, light microscopy
Procedure: Following the incubation of respective time periods, cytospin slides were prepared and stained with Hema 3 staining on the many factors protocol. Subsequently the mitotic index was calculated by the number of mitoses evaluated in 10 high power fields (×400).

[9] = tested on: OCI-Ly3 cells; experiment: Cell viability, Annexin V/PI assay; format: cell-based; conditions: OCI-Ly3 (DLBCL); 48 hours; KPT-330 0.1-1.0 μM, CS 1-3 mM, single agent or combination
Procedure: DMSO was used to substitute the drug in controls.
Apoptosis results were analyzed with BD CellQuest software.
Cell lines were cultured according to instruction.

C[N+](C)(C)CCO.O=C([O-])c1ccccc1O [CS, choline salicylate]
% viability normalized for respective controls [1]: 53% | % viability normalized for respective controls [2]: 84% | % viability normalized for respective controls [3]: 92% | % viability normalized for respective controls [4]: 90% | % viability normalized for respective controls [5]: 89% | % viability normalized for respective controls ([6]; OCI-Ly1 (DLBCL), 48 hours, KPT-330 0.1-1.0 μM, CS 1-3 mM, single agent or combination): 101% | % viability normalized for respective controls [7]: 89% | mitotic index (MI) [8]: 166 /10 HPF | % viability normalized for respective controls [9]: 84%

O=C(/C=C\n1cnc(-c2cc(C(F)(F)F)cc(C(F)(F)F)c2)n1)NNc1cnccn1 [KPT-330, (Z)-3-[3-[3,5-bis (trifluoromethyl)phenyl]-1,2,4-triazol-1-yl]-N′-pyrazin-2-ylprop-2-enehydrazide]
% viability normalized for respective controls [1]: 56% | % viability normalized for respective controls [2]: 69% | % viability normalized for respective controls [3]: 63% | % viability normalized for respective controls [4]: 90% | % viability normalized for respective controls [5]: 65% | IC50 ([6]; Homo sapiens, OCI-Ly1, 72 h): 1.8 µM | % viability normalized for respective controls [7]: 58% | mitotic index (MI) [8]: 153 /10 HPF | % viability normalized for respective controls [9]: 85%
